Like-named read-outs stand apart in the source and are kept apart here.
What was measured:
Assay type in all cases: cell-based
K-562 = experiment: SRB colorimetric cell growth inhibition assay, K-562; details: for GI50: GI=growth inhibition, read-out: GI50 K-562; for CC50: cell killing (cytotoxic effect), read-out: LC50 K-562
Outline: (§1)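 Human tumour cells continuously exposed to compound in 96-well culture; growth and viability quantified colorimetrically by sulforhodamine B staining. Mean ± SD from triplicate wells; GI (growth inhibition), TGI (total growth inhibition, cytostatic) and LC (cell killing, cytotoxic) parameters derived.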

A-549 = experiment: SRB colorimetric cell growth inhibition assay, A-549; details: for GI50: GI=growth inhibition, read-out: GI50 A-549; for CC50: cell killing (cytotoxic effect), read-out: LC50 A-549
Outline: as §1

SK-MEL-28 = experiment: SRB colorimetric cell growth inhibition assay, SK-MEL-28; details: for GI50: GI=growth inhibition, read-out: GI50 MEL-28; for CC50: cell killing (cytotoxic effect), read-out: LC50 MEL-28
Outline: as §1

HT-29 = experiment: SRB colorimetric cell growth inhibition assay, HT-29; details: for GI50: GI=growth inhibition, read-out: GI50 HT-29; for CC50: cell killing (cytotoxic effect), read-out: LC50 HT-29
Outline: as §1

LoVo = experiment: SRB colorimetric cell growth inhibition assay, LoVo; details: for GI50: GI=growth inhibition, read-out: GI50 LOVO; for CC50: cell killing (cytotoxic effect), read-out: LC50 LOVO
Outline: as §1

LoVo-Dox = experiment: SRB colorimetric cell growth inhibition assay, LoVo-Dox (MDR); details: LOVO-DOX; for GI50: GI=growth inhibition, read-out: GI50 LOVO-DOX; for CC50: cell killing (cytotoxic effect), read-out: LC50 LOVO-DOX
Outline: as §1

DU-145 = experiment: SRB colorimetric cell growth inhibition assay, DU-145; details: for GI50: GI=growth inhibition, read-out: GI50 DU-145; for CC50: cell killing (cytotoxic effect), read-out: LC50 DU-145; for IC (TGI): total growth inhibition (cytostatic effect), read-out: TGI DU-145
Outline: as §1

LNCaP = experiment: SRB colorimetric cell growth inhibition assay, LNCaP; details: LN-caP; for GI50: GI=growth inhibition, read-out: GI50 LN-caP; for CC50: cell killing (cytotoxic effect), read-out: LC50 LN-caP
Outline: as §1

SK-BR-3 = experiment: SRB colorimetric cell growth inhibition assay, SK-BR-3; details: for GI50: GI=growth inhibition, read-out: GI50 SK-BR-3; for CC50: cell killing (cytotoxic effect), read-out: LC50 SK-BR-3
Outline: as §1

IGROV = experiment: SRB colorimetric cell growth inhibition assay, IGROV; details: IGROV; for GI50: GI=growth inhibition, read-out: GI50 IGROV; for CC50: cell killing (cytotoxic effect), read-out: LC50 IGROV
Outline: as §1

IGROV-ET = experiment: SRB colorimetric cell growth inhibition assay, IGROV-ET (ET-743 resistant); details: IGROV-ET; for GI50: GI=growth inhibition, read-out: GI50 IGROV-ET; for CC50: cell killing (cytotoxic effect), read-out: LC50 IGROV-ET
Outline: as §1

HeLa = experiment: SRB colorimetric cell growth inhibition assay, HeLa; details: for GI50: GI=growth inhibition, read-out: GI50 HELA; for CC50: cell killing (cytotoxic effect), read-out: LC50 HELA
Outline: as §1

HeLa-APL = experiment: SRB colorimetric cell growth inhibition assay, HeLa-APL (aplidine resistant); details: HELA-APL; for GI50: GI=growth inhibition, read-out: GI50 HELA-APL; for CC50: cell killing (cytotoxic effect), read-out: LC50 HELA-APL
Outline: as §1

PANC-1 = experiment: SRB colorimetric cell growth inhibition assay, PANC-1; details: for GI50: GI=growth inhibition, read-out: GI50 PANC-1; for CC50: cell killing (cytotoxic effect), read-out: LC50 PANC-1
Outline: as §1

[1] = Homo sapiens, SK-MEL-28, MEL-28
[2] = total growth inhibition (cytostatic effect)

## COc1cc(-c2c3c4cc(OC)c(OC(=O)[C@@H](N)CC(C)C)cc4oc(=O)c3n3ccc4cc(OC(=O)[C@@H](N)CC(C)C)c(OC)cc4c23)ccc1OC(=O)[C@@H](N)CC(C)C [Compound 181]
K-562; Homo sapiens, K562, K-562
  GI50: 0.0328 µM
  CC50: 7.14 µM
K-562; Homo sapiens, K562, K-562, total growth inhibition (cytostatic effect), read-out: TGI K-562
  IC (TGI): 0.444 µM
A-549; Homo sapiens, A549, A-549
  GI50: 0.0198 µM
  CC50: 8.18 µM
A-549; Homo sapiens, A549, A-549, total growth inhibition (cytostatic effect), read-out: TGI A-549
  IC (TGI): 0.209 µM
SK-MEL-28; [1]
  GI50: 0.0168 µM
  CC50: 2.14 µM
SK-MEL-28; Homo sapiens, SK-MEL-28, MEL-28, total growth inhibition (cytostatic effect), read-out: TGI MEL-28
  IC (TGI): 0.0956 µM
HT-29; Homo sapiens, HT-29, HT-29
  GI50: 3.06 µM
  CC50: 10.5 µM
HT-29; Homo sapiens, HT-29, HT-29, total growth inhibition (cytostatic effect), read-out: TGI HT-29
  IC (TGI): 10.5 µM
LoVo; Homo sapiens, LoVo
  GI50: 0.331 µM
  CC50: 10.5 µM
LoVo; Homo sapiens, LoVo, total growth inhibition (cytostatic effect), read-out: TGI LOVO
  IC (TGI): 1.1 µM
LoVo-Dox; Homo sapiens
  GI50: 0.0945 µM
  CC50: 10.5 µM
LoVo-Dox; Homo sapiens, total growth inhibition (cytostatic effect), read-out: TGI LOVO-DOX
  IC (TGI): 0.47 µM
DU-145; Homo sapiens, DU-145, DU-145
  GI50: 0.0249 µM
  CC50: 10.5 µM
  IC (TGI): 0.0594 µM
LNCaP; Homo sapiens, LNCaP
  GI50: 0.0593 µM
  CC50: 0.678 µM
LNCaP; Homo sapiens, LNCaP, total growth inhibition (cytostatic effect), read-out: TGI LN-caP
  IC (TGI): 0.237 µM
SK-BR-3; Homo sapiens, SK-BR-3, SK-BR-3
  GI50: 0.0206 µM
  CC50: 0.862 µM
SK-BR-3; Homo sapiens, SK-BR-3, SK-BR-3, total growth inhibition (cytostatic effect), read-out: TGI SK-BR-3
  IC (TGI): 0.0592 µM
IGROV; Homo sapiens
  GI50: 0.038 µM
  CC50: 3.2 µM
IGROV; Homo sapiens, total growth inhibition (cytostatic effect), read-out: TGI IGROV
  IC (TGI): 0.231 µM
IGROV-ET; Homo sapiens
  GI50: 0.05 µM
  CC50: 10.5 µM
IGROV-ET; Homo sapiens, total growth inhibition (cytostatic effect), read-out: TGI IGROV-ET
  IC (TGI): 0.341 µM
HeLa; Homo sapiens, HeLa
  GI50: 0.0478 µM
  CC50: 10.5 µM
HeLa; Homo sapiens, HeLa, total growth inhibition (cytostatic effect), read-out: TGI HELA
  IC (TGI): 0.632 µM
HeLa-APL; Homo sapiens
  GI50: 0.0667 µM
  CC50: 8.14 µM
HeLa-APL; Homo sapiens, total growth inhibition (cytostatic effect), read-out: TGI HELA-APL
  IC (TGI): 0.477 µM
PANC-1; Homo sapiens, PANC-1, PANC-1
  GI50: 0.0864 µM
  CC50: 10.5 µM
PANC-1; Homo sapiens, PANC-1, PANC-1, total growth inhibition (cytostatic effect), read-out: TGI PANC-1
  IC (TGI): 2.09 µM

## COc1cc(-c2c3c4cc(OC)c(OC(=O)[C@H](C)N)cc4oc(=O)c3n3ccc4c(OC(=O)[C@H](C)N)c(OC)c(OC)cc4c23)ccc1OC(=O)[C@H](C)N [Compound 191]
K-562; K-562
  GI50: 0.129 µM
  CC50: 9.49 µM
K-562; K-562, total growth inhibition (cytostatic effect)
  TGI K-562: 1.69E−06 Molar
A-549; A-549
  GI50: 0.573 µM
  CC50: 11.7 µM
A-549; A-549, total growth inhibition (cytostatic effect)
  TGI A-549: 1.17E−05 Molar
SK-MEL-28; MEL-28
  GI50: 0.363 µM
  CC50: 11.7 µM
SK-MEL-28; MEL-28, total growth inhibition (cytostatic effect)
  TGI MEL-28: 1.17E−05 Molar
HT-29; HT-29
  GI50: 6.18 µM
  CC50: 11.7 µM
HT-29; HT-29, total growth inhibition (cytostatic effect)
  TGI HT-29: 1.17E−05 Molar
LoVo; LOVO
  GI50: 0.513 µM
  CC50: 7.9 µM
LoVo; LOVO, total growth inhibition (cytostatic effect)
  TGI LOVO: 1.70E−06 Molar
LoVo-Dox
  GI50: 0.785 µM
  CC50: 11.7 µM
LoVo-Dox; [2]
  TGI LOVO-DOX: 1.17E−05 Molar
DU-145; DU-145
  CC50: 11.7 µM
DU-145; Homo sapiens, DU-145, DU-145
  GI50: 0.0621 µM
  IC (TGI): 0.228 µM
LNCaP; Homo sapiens, LNCaP
  GI50: 0.244 µM
LNCaP
  CC50: 5.36 µM
LNCaP; [2]
  TGI LN-caP: 1.48E−06 Molar
SK-BR-3; SK-BR-3
  GI50: 0.555 µM
  CC50: 11.7 µM
SK-BR-3; SK-BR-3, total growth inhibition (cytostatic effect)
  TGI SK-BR-3: 3.66E−06 Molar
IGROV
  GI50: 0.458 µM
  CC50: 11.7 µM
IGROV; [2]
  TGI IGROV: 2.77E−06 Molar
IGROV-ET
  GI50: 0.588 µM
  CC50: 11.7 µM
IGROV-ET; [2]
  TGI IGROV-ET: 6.96E−06 Molar
HeLa; HELA
  GI50: 0.948 µM
  CC50: 8.63 µM
HeLa; HELA, total growth inhibition (cytostatic effect)
  TGI HELA: 2.96E−06 Molar
HeLa-APL
  GI50: 0.94 µM
  CC50: 5.96 µM
HeLa-APL; [2]
  TGI HELA-APL: 2.52E−06 Molar
PANC-1; PANC-1
  GI50: 1.27 µM
  CC50: 11.7 µM
PANC-1; PANC-1, total growth inhibition (cytostatic effect)
  TGI PANC-1: 9.66E−06 Molar

Source: patent US7396837B2, “Antitumoral analogs of lamellarins” (Pharma Mar, S.A.U., priority 2002, dated 2008)
